These results are taken from the supplement of paper PMC12463676, “Small-molecule dissolution of stress granules by redox modulation benefits ALS models” (Nature Chemical Biology, 2025).

Compound in one experiment: NC(=O)CCCCC1CCSS1 [lipoamide]
As to the kind of experiment: thermal stability z-score vs DMSO; higher = more thermally stabilized by treatment. The settings on record: HeLa, lipoamide concentration 100 µM. How it is done:
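Cellular thermal proteome profiling in HeLa cells. Cells were treated with 100 µM lipoamide for 1 h, with or without 1 mM arsenate for a further 1 h, then heated to ten temperatures (37-66.3 °C), and soluble protein was quantified by TMT mass spectrometry relative to 0.1% DMSO controls. The thermal stability score (sum of log2 fold changes minus the abundance score) was transformed to a z-score; mean of n = 3 experiments.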

Compound in another experiment: O=[As]([O-])(O)O.[K+] [potassium arsenate]
The experiment is described as above. The settings on record: HeLa; arsenate concentration 1 mM. As for the experimental part:
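Cellular thermal proteome profiling in HeLa cells treated with 1 mM arsenate for 1 h (DMSO pretreatment), heated to ten temperatures (37-66.3 °C). Soluble protein was quantified by TMT mass spectrometry relative to DMSO controls; the thermal stability score was transformed to a z-score; mean of n = 3 experiments.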

The mark [1] stands for this setting: arsenate co-treatment: 1 mM arsenate 1 h.
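Also: each temperature applied for 3 min, abundance score taken as mean log2 fold change at the two lowest temperatures, z-score obtained by mean subtraction and division by SD.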

UniProt Q969E8, sequence (Q969E8 whole entry): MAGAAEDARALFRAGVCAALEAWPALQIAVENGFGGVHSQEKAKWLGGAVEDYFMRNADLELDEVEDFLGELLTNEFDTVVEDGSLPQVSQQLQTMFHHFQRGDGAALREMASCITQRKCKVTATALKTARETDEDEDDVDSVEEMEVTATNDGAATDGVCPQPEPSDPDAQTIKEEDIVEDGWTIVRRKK
UniProt Q8WV93, sequence (Q8WV93 whole entry): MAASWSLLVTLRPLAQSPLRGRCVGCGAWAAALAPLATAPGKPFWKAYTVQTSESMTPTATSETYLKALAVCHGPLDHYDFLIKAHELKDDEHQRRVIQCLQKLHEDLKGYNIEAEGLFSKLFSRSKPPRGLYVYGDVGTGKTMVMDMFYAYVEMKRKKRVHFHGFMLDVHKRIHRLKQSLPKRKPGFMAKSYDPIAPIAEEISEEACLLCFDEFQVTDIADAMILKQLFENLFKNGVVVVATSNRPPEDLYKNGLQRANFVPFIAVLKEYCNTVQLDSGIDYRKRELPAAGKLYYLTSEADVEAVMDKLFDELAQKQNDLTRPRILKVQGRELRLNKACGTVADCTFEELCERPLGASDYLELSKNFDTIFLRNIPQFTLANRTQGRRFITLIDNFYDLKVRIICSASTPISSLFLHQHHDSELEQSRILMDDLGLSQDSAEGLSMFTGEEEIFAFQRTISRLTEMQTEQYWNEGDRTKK
UniProt Q9BXB5, sequence (Q9BXB5 whole entry): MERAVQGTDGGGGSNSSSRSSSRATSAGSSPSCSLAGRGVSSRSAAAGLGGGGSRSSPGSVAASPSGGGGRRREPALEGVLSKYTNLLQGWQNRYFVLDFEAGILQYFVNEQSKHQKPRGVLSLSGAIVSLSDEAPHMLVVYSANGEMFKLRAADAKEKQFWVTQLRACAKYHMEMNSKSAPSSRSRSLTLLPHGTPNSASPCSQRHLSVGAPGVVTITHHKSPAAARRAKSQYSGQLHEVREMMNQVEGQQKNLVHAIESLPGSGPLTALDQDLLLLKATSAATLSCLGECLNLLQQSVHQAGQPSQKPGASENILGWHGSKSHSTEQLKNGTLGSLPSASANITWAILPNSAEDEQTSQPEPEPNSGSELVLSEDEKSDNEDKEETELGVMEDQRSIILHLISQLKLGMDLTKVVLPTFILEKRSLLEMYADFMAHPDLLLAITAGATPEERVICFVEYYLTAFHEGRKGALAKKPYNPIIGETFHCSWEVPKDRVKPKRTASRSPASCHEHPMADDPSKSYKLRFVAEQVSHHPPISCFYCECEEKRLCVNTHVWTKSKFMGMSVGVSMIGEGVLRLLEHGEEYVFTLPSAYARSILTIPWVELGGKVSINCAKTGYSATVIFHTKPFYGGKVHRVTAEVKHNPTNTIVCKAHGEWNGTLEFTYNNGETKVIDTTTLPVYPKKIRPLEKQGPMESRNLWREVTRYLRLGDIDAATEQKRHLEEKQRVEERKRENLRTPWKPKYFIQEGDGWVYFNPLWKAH
UniProt Q86WQ0, sequence (Q86WQ0 whole entry): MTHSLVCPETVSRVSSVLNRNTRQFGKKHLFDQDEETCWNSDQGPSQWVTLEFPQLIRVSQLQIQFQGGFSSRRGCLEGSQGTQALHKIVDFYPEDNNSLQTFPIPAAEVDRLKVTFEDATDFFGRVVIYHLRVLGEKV
UniProt Q9UHF1, sequence (Q9UHF1 whole entry): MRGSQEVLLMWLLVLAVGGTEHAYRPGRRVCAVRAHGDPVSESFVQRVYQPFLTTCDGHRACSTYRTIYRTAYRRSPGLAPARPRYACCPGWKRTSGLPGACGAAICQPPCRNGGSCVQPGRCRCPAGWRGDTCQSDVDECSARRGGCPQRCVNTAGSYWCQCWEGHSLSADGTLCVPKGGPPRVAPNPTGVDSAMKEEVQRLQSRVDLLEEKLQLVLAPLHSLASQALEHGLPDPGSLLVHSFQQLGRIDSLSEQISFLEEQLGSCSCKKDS
UniProt P22695, sequence (P22695 whole entry): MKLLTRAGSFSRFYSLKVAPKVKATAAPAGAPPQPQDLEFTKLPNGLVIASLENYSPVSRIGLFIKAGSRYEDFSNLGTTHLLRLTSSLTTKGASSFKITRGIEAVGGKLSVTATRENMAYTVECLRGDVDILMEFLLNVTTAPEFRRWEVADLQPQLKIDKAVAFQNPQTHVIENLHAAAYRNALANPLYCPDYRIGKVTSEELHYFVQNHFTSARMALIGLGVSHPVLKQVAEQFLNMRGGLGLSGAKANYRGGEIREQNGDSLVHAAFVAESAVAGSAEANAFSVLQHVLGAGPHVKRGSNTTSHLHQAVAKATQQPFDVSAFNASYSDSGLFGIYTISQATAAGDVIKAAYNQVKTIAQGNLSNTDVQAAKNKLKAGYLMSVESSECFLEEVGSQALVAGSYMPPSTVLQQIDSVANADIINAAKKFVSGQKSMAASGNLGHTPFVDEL
UniProt Q86VR2, sequence (Q86VR2 whole entry): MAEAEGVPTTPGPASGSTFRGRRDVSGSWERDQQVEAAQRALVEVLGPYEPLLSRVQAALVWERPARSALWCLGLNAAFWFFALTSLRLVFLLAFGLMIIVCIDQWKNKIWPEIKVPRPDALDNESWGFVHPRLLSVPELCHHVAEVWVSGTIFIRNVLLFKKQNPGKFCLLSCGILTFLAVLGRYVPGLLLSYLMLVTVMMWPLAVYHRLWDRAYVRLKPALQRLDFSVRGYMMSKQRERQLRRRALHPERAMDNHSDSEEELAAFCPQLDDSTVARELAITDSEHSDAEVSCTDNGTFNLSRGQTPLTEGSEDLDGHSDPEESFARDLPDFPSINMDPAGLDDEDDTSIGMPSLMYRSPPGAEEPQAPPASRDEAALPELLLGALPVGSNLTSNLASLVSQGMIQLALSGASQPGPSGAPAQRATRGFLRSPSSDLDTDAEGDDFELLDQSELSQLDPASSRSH
UniProt Q9NRX5, sequence (Q9NRX5 whole entry): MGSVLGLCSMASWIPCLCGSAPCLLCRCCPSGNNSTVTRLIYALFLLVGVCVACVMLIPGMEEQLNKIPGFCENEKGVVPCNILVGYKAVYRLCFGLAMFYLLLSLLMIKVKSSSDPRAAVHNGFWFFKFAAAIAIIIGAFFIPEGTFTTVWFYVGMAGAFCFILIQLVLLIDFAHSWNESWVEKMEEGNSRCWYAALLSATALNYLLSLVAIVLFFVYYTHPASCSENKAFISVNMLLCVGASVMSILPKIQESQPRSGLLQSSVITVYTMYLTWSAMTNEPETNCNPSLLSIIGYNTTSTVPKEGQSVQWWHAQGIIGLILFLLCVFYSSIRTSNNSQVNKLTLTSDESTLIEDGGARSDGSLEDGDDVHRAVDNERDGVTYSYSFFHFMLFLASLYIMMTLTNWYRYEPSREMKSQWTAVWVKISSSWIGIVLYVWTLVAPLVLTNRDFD
UniProt Q7Z2Z2, sequence (Q7Z2Z2 whole entry): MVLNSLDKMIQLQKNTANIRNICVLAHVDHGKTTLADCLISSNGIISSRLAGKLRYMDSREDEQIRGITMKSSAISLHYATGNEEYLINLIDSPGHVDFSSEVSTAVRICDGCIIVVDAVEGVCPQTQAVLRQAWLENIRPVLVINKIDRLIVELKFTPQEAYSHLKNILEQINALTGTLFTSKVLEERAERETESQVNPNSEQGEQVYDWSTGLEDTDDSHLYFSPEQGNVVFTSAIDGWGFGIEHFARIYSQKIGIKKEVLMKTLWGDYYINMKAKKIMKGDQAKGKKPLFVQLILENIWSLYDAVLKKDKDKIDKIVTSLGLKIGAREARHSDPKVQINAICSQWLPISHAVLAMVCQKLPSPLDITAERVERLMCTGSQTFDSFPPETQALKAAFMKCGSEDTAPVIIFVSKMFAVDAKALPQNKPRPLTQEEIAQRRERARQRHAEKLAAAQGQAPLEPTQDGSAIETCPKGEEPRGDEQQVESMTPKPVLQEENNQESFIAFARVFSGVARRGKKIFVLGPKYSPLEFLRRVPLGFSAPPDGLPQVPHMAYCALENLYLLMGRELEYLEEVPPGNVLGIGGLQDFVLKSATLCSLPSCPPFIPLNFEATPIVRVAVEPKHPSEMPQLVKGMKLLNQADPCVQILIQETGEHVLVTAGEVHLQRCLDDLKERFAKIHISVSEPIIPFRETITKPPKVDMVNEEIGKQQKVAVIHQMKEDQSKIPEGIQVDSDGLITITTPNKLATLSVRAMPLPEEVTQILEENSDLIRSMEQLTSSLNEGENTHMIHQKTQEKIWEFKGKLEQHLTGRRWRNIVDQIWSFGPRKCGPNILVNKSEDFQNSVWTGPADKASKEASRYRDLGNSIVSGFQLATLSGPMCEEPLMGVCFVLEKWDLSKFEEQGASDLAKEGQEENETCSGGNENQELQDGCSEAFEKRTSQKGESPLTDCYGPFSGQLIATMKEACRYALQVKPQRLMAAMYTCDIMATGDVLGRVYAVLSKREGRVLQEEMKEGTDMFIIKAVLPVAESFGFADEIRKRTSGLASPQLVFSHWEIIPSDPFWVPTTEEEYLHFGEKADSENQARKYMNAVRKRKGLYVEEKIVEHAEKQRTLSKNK
UniProt Q9NWT1, sequence (Q9NWT1 whole entry): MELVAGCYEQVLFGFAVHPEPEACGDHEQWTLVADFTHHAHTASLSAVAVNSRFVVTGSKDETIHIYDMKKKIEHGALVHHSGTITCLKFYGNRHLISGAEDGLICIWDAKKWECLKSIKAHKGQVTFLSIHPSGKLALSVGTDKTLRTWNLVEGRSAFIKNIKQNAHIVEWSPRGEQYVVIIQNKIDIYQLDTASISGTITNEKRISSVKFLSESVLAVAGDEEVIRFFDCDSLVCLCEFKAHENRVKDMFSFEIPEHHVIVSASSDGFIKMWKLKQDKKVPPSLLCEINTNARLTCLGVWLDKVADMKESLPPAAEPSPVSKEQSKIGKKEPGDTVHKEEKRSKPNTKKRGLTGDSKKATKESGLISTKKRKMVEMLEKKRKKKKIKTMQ
UniProt Q8N9N7, sequence (Q8N9N7 whole entry): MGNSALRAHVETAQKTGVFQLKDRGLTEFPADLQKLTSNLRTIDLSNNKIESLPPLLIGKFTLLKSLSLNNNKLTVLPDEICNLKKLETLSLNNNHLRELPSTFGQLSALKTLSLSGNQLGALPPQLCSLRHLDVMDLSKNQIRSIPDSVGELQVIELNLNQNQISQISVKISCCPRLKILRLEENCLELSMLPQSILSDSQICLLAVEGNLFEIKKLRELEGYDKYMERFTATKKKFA

As to PARS2 (UniProt Q7L3T8), the thermal stability z-score with lipoamide (setting [1]) is -0.928; in the experiment with lipoamide (arsenate co-treatment: none), -0.492; with potassium arsenate it was -0.314.
As to NR2C2AP (UniProt Q86WQ0), the thermal stability z-score is -0.149 with lipoamide (setting [1]), -0.255 with lipoamide (arsenate co-treatment: none) and 0.17 with potassium arsenate.
Taken in the same sequence, the figures for HNRNPA0 (UniProt Q13151) were -1.04, -0.776 and -0.778.
For DERL2 (UniProt Q9GZP9) the same measures were -0.00701, -0.0318 and 0.0606.
For PAK1IP1 (UniProt Q9NWT1) the same measures were 0.104, -0.651 and -1.53.
Take ERLEC1 (UniProt Q96DZ1): the figures for the thermal stability z-score with lipoamide (setting [1]), in the experiment with lipoamide (arsenate co-treatment: none) and with potassium arsenate were -2.84, -2.07 and 0.593, respectively.
Taken in the same sequence, the figures for ANAPC5 (UniProt Q9UJX4) were 0.0562, -0.0827 and -0.0639.
As to RUFY1 (UniProt Q96T51), the thermal stability z-score with lipoamide (setting [1]) is -0.702; in the experiment with lipoamide (arsenate co-treatment: none) it was -0.00916; with potassium arsenate it was 0.39.
Taken in the same sequence, the figures for NSFL1C (UniProt Q9UNZ2) were 0.605, 0.41 and 1.21.
Taken in the same sequence, the figures for LRRC57 (UniProt Q8N9N7) were 0.252, -0.185 and -0.186.
Taken in the same sequence, the figures for CCDC117 (UniProt Q8IWD4) were -0.191, -0.317 and -0.388.
Consider FAM134C (UniProt Q86VR2), for which the thermal stability z-score with lipoamide (setting [1]) was 0.622; with lipoamide (arsenate co-treatment: none), -0.494; in the experiment with potassium arsenate, 1.35.
For the target SLC25A11 (UniProt Q02978), the thermal stability z-score is 0.183 with lipoamide (setting [1]), 0.431 in the experiment with lipoamide (arsenate co-treatment: none) and 0.593 in the experiment with potassium arsenate.
Taken in the same sequence, the figures for ZNF598 (UniProt Q86UK7) were 0.0109, -0.407 and -0.82.
Taken in the same sequence, the figures for OSBPL10 (UniProt Q9BXB5) were -1.14, -0.711 and -1.41.
With TSR2 (UniProt Q969E8), the thermal stability z-score with lipoamide (setting [1]) was determined as 0.33; with lipoamide (arsenate co-treatment: none), 0.0774; with potassium arsenate it was 0.317.
KIAA0907 (UniProt Q7Z7F0): the thermal stability z-score with lipoamide (setting [1]) is -0.462; with lipoamide (arsenate co-treatment: none), -1.09; with potassium arsenate it was -0.94.
On to CPSF3L (UniProt Q5TA45), for which the thermal stability z-score with lipoamide (setting [1]) is 0.622; in the experiment with lipoamide (arsenate co-treatment: none), 0.702; with potassium arsenate, 0.178.
For LACE1 (UniProt Q8WV93) the same measures were 0.0464, 0.0601 and -0.0299.
As for EGFL7 (UniProt Q9UHF1), the thermal stability z-score with lipoamide (setting [1]) is 0.126; with lipoamide (arsenate co-treatment: none), 0.102; with potassium arsenate, -0.108.
For TMEM206 (UniProt Q9H813) the same measures were 0.109, 0.0248 and -0.299.
As for UQCRC2 (UniProt P22695), the figures for the thermal stability z-score with lipoamide (setting [1]), with lipoamide (arsenate co-treatment: none) and in the experiment with potassium arsenate were 0.268, -0.0661 and -2.47, respectively.
Taken in the same sequence, the figures for EFL1 (UniProt Q7Z2Z2) were -0.245, 0.0406 and 0.402.
For SERINC1 (UniProt Q9NRX5) the same measures were 0.282, -0.488 and 0.329.
For LARS (UniProt Q9P2J5) the same measures were -0.63, 0.0502 and 0.86.
CNOT11 (UniProt Q9UKZ1): the figures for the thermal stability z-score with lipoamide (setting [1]), in the experiment with lipoamide (arsenate co-treatment: none) and with potassium arsenate were -0.0705, 0.0824 and 0.0729, respectively.
On to FIS1 (UniProt Q9Y3D6), for which the thermal stability z-score was -0.114 with lipoamide (setting [1]), 0.595 with lipoamide (arsenate co-treatment: none) and -0.678 with potassium arsenate.
Taken in the same sequence, the figures for UBXN1 (UniProt Q04323) were 0.155, 0.25 and -0.0349.
